Measured values published in patent US20100286145A1, “ISOPHTHALAMIDE DERIVATIVES INHIBITING BETA-SECRETASE ACTIVITY” (CoMentis, Inc., priority 2007, published 2010).
Read-outs that look alike come from different tables or passages of the source.

Key:
[1] = biological target: T1, memapsin 1 (Homo sapiens, UniProt Q9Y5Z0); test: Inhibition of memapsin 1 beta-secretase activity (substrate peptide ELDLAVEFWHDR, MALDI-TOF); format: biochemical
T1 sequence (Q9Y5Z0 63-518): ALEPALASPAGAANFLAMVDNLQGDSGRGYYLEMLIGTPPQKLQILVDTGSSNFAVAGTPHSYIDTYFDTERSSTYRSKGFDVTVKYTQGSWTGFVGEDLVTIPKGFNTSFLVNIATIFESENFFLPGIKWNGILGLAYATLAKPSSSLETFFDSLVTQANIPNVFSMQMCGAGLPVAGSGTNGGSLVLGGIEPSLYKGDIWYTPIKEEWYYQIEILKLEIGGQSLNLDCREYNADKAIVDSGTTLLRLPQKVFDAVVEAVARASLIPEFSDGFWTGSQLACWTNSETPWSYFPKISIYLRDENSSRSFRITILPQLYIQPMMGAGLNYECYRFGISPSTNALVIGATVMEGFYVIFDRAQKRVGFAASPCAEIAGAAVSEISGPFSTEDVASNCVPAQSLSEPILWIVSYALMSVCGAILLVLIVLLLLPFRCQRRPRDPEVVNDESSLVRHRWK

[2] = tested on: Aβ production in Chinese hamster ovary cells that over-express human APP695 with the London and Swedish mutations; test: Cellular Aβ IC50 determination (Aβ40 sandwich ELISA); format: cell-based; conditions: Cricetulus griseus
Outline: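 Aβ40 in media quantified by sandwich ELISA, normalized to control incubations and fitted with a 4-parameter IC50 model. Compounds dosed to a final concentration near 4 μM (0.4% DMSO) on CHO cells expressing human APP695 (London and Swedish mutants) seeded at 10% confluency.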

[3] = biological target: memapsin 2 (Homo sapiens, UniProt P56817); test: Inhibition of memapsin 2 beta-secretase activity (fluorogenic substrate FS-2); format: biochemical; conditions: memapsin 2, pH 4, 37° C.
Outline: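 Kinetic fluorogenic assay: hydrolysis of the MCA/DNP-labelled APP Swedish-variant peptide FS-2 monitored as fluorescence rise at 37° C, pH 4, after 20 min enzyme–compound preincubation. Relative rates fitted with a tight-binding inhibitor model.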

[4] = biological target: cathepsin D (Homo sapiens, UniProt P07339); test: Inhibition of cathepsin D activity (substrate peptide ELDLAVEFWHDR, MALDI-TOF); format: biochemical
[5] = cellular Aβ production, read-out: IC50
[6] = 20 minutes pre-incubation, read-out: M2Ki

Sequence of cathepsin D (P07339 65-412, species assumed): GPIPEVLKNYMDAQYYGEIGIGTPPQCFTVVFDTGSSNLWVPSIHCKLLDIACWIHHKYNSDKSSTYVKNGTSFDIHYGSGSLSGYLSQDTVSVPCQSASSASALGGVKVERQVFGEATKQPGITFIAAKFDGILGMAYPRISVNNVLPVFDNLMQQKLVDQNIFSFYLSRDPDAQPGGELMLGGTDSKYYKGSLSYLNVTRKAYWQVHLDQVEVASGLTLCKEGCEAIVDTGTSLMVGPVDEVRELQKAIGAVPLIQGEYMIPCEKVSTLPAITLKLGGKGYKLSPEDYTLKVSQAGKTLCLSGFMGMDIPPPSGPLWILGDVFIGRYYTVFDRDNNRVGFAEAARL
Sequence of memapsin 2 (P56817 46-501): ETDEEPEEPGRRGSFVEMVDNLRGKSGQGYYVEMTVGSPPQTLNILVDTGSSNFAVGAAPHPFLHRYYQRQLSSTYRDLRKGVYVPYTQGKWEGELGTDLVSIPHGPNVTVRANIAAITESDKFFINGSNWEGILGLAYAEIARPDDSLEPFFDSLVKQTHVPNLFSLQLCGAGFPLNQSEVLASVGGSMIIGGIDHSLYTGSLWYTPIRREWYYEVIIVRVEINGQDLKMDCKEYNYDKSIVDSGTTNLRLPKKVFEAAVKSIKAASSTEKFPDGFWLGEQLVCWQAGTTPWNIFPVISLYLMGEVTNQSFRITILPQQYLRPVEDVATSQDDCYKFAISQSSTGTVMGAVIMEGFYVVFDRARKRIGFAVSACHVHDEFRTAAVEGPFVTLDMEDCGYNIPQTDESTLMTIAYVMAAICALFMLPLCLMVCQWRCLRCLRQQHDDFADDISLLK

`Cc1csc(CN(C)C(=O)c2cccc(C(=O)N[C@@H](Cc3ccccc3)[C@H](O)CNCc3ccnc(C(C)C)c3)c2)n1` [Compound 33, N1-((2S,3R)-3-hydroxy-4-((2-isopropylpyridin-4-yl)methylamino)-1-phenylbutan-2-yl)-N3-methyl-N3-((4-methylthiazol-2-yl)methyl)isophthalamide] gave a Ki ([1]; read-out: M1Ki) of 301 to 500 nM, an IC50 [2, 5] of less than 1000 nM and a Ki [3, 6] of less than 300 nM. For the same compound, the Ki ([4]; read-out: CDKi) was less than 300 nM.

`COc1cc(C(=O)N[C@@H](Cc2ccccc2)[C@H](O)CNCc2cncc(C(C)C)c2)cc(C(=O)N(C)Cc2nc(C)cs2)c1` [Compound 40, N1-((2S,3R)-3-hydroxy-4-((5-isopropylpyridin-3-yl)methylamino)-1-phenylbutan-2-yl)-5-methoxy-N3-methyl-N3-((4-methylthiazol-2-yl)methyl)isophthalamide] gave a Ki ([1]; read-out: M1Ki) of less than 300 nM, an IC50 [2, 5] of less than 1000 nM and a Ki [3, 6] of less than 300 nM. The Ki ([4]; read-out: CDKi) was less than 300 nM.

`Cc1cc(C(=O)N[C@@H](Cc2ccccc2)[C@H](O)CNCc2cncc(C(C)C)c2)cc(C(=O)N(Cc2nc(C)cs2)C2CC2)c1` [Compound 41, N1-cyclopropyl-N3-((2S,3R)-3-hydroxy-4-((5-isopropylpyridin-3-yl)methylamino)-1-phenylbutan-2-yl)-5-methyl-N1-((4-methylthiazol-2-yl)methyl)isophthalamide] showed a Ki ([1]; read-out: M1Ki) of less than 300 nM, an IC50 [2, 5] of less than 1000 nM and a Ki [3, 6] of less than 300 nM. The Ki ([4]; read-out: CDKi) was less than 300 nM.

In the case of `COc1cccc(CNC[C@@H](O)[C@H](Cc2ccccc2)NC(=O)c2cc(C(=O)N(C)Cc3nc(C)cs3)cc(C3=NCCO3)c2)c1` [Compound 46, 5-(4,5-dihydrooxazol-2-yl)-N1-((2S,3R)-3-hydroxy-4-(3-methoxybenzylamino)-1-phenylbutan-2-yl)-N3-methyl-N3-((4-methylthiazol-2-yl)methyl)isophthalamide], the Ki ([1]; read-out: M1Ki) is reported as greater than 501 nM, the IC50 [2, 5] is reported as less than 1000 nM and the Ki [3, 6] is reported as less than 300 nM. The Ki ([4]; read-out: CDKi) was 301 to 500 nM.

`C[C@@H](NC(=O)c1cc(C(=O)N[C@@H](Cc2ccccc2)[C@H](O)CNCc2cccc(O)c2)cc(N(C)S(C)(=O)=O)c1)c1ccccc1` [Compound 71, N1-((2S,3R)-3-hydroxy-4-(3-hydroxybenzylamino)-1-phenylbutan-2-yl)-5-(N-methylmethylsulfonamido)-N3-((R)-1-phenylethyl)isophthalamide] was tested, and the Ki ([1]; read-out: M1Ki) was greater than 501 nM, the IC50 [2, 5] was less than 1000 nM and the Ki [3, 6] was less than 300 nM. It also gave a Ki ([4]; read-out: CDKi) greater than 501 nM.

Work on `COc1cc(CNC[C@@H](O)[C@H](Cc2ccccc2)NC(=O)c2cccc(C(=O)N(C)Cc3nc(C)cs3)c2)cc(C(=O)O)c1` [Compound 72, 3-(((2R,3S)-2-hydroxy-3-(3-(methyl((4-methylthiazol-2-yl)methyl)carbamoyl)benzamido)-4-phenylbutylamino)methyl)-5-methoxybenzoic acid] yielded a Ki ([1]; read-out: M1Ki) greater than 501 nM, an IC50 [2, 5] of 1000 to 5000 nM and a Ki [3, 6] of less than 300 nM. The Ki ([4]; read-out: CDKi) was greater than 501 nM.

In the case of `C[C@@H](NC(=O)c1cc(C(=O)N[C@@H](Cc2ccccc2)[C@H](O)CNCc2cncc(C(F)(F)F)c2)cc(N(C)S(C)(=O)=O)c1)c1ccccc1` [Compound 81, N1-((2S,3R)-3-hydroxy-1-phenyl-4-((5-(trifluoromethyl)pyridin-3-yl)methylamino)butan-2-yl)-5-(N-methylmethylsulfonamido)-N3-((R)-1-phenylethyl)isophthalamide], the Ki ([1]; read-out: M1Ki) is reported as less than 300 nM, the IC50 [2, 5] is reported as less than 1000 nM and the Ki [3, 6] is reported as less than 300 nM. The Ki ([4]; read-out: CDKi) was greater than 501 nM.

Work on `Cc1csc([C@@H](C)N(C)C(=O)c2cccc(C(=O)N[C@@H](Cc3ccccc3)[C@H](O)CNCc3cncc(C(C)C)c3)c2)n1` [Compound 82, N1-((2S,3R)-3-hydroxy-4-((5-isopropylpyridin-3-yl)methylamino)-1-phenylbutan-2-yl)-N3-methyl-N3-((R)-1-(4-methylthiazol-2-yl)ethyl)isophthalamide] yielded a Ki ([1]; read-out: M1Ki) of 301 to 500 nM, an IC50 [2, 5] of less than 1000 nM and a Ki [3, 6] of less than 300 nM. The Ki ([4]; read-out: CDKi) was 301 to 500 nM.

`C[C@@H](NC(=O)c1cc(C(=O)N[C@@H](Cc2ccccc2)[C@H](O)CNCc2cccc(Cl)c2)cc(N(C)S(C)(=O)=O)c1)c1ccccc1` [Compound 86, N1-((2S,3R)-4-(3-chlorobenzylamino)-3-hydroxy-1-phenylbutan-2-yl)-5-(N-methylmethylsulfonamido)-N3-((R)-1-phenylethyl)isophthalamide] gave a Ki ([1]; read-out: M1Ki) of less than 300 nM, an IC50 [2, 5] of less than 1000 nM and a Ki [3, 6] of less than 300 nM. The Ki ([4]; read-out: CDKi) was 301 to 500 nM.

In the case of `C[C@@H](NC(=O)c1cc(C(=O)N[C@@H](Cc2ccccc2)[C@H](O)CNCc2cccc(I)c2)cc(N(C)S(C)(=O)=O)c1)c1ccccc1` [Compound 88, N1-((2S,3R)-3-hydroxy-4-(3-iodobenzylamino)-1-phenylbutan-2-yl)-5-(N-methylmethylsulfonamido)-N3-((R)-1-phenylethyl)isophthalamide], the Ki ([1]; read-out: M1Ki) is reported as less than 300 nM, the IC50 [2, 5] is reported as less than 1000 nM and the Ki [3, 6] is reported as less than 300 nM. For the same compound, the Ki ([4]; read-out: CDKi) was less than 300 nM.

For `C[C@@H](NC(=O)c1cc(C(=O)N[C@@H](Cc2ccccc2)[C@H](O)CNCc2cncc(C(C)(C)F)c2)cc(N(C)S(C)(=O)=O)c1)c1ccccc1` [Compound 89, N1-((2S,3R)-4-((5-(2-fluoropropan-2-yl)pyridin-3-yl)methylamino)-3-hydroxy-1-phenylbutan-2-yl)-5-(N-methylmethylsulfonamido)-N3-((R)-1-phenylethyl)isophthalamide], the Ki ([1]; read-out: M1Ki) was less than 300 nM, the IC50 [2, 5] was less than 1000 nM and the Ki [3, 6] was less than 300 nM. It also gave a Ki ([4]; read-out: CDKi) of less than 300 nM.

Work on `Cc1csc(CN(C)C(=O)c2cccc(C(=O)N[C@@H](Cc3ccccc3)[C@H](O)CNCc3cc(C(C)C)cc(N(C)C)c3)c2)n1` [Compound 90, N1-((2S,3R)-4-(3-(dimethylamino)-5-isopropylbenzylamino)-3-hydroxy-1-phenylbutan-2-yl)-N3-methyl-N3-((4-methylthiazol-2-yl)methyl)isophthalamide] yielded a Ki ([1]; read-out: M1Ki) greater than 501 nM, an IC50 [2, 5] of less than 1000 nM and a Ki [3, 6] of less than 300 nM. It also gave a Ki ([4]; read-out: CDKi) of less than 300 nM.

`Cc1cc(C(=O)N[C@@H](Cc2ccccc2)[C@H](O)CNCc2cncc(C(C)C)c2)cc(C(=O)N(C)Cc2nc(C)cs2)c1` [N1-((2S,3R)-3-hydroxy-4-((5-isopropylpyridin-3-yl)methylamino)-1-phenylbutan-2-yl)-N3,5-dimethyl-N3-((4-methylthiazol-2-yl)methyl)isophthalamide] was tested, and the Ki ([1]; read-out: M1 Ki) was 264 nM, the IC50 ([2]; CHO cells, 24 h incubation, Aβ40, read-out: IC50 (cellular Aβ production)) was 6 nM and the Ki ([3]; read-out: M2 Ki) was 16.8 nM. The Ki ([4]; read-out: CathD Ki) was 32.3 nM.
